Values quoted from earlier work, collected in patent US20160133992A1, “DRYING OF ELECTROLYTE MIXTURES CONTAINING ACIDS WITH MOLECULAR SIEVES” (BASF SE, priority 2013, published 2016).

Conditions: not given

Row | SMILES | pKa
1 | CC(CCO)S(=O)(=O)O (stereo not shown) [1-Methyl-gamma-hydroxy propane sulfonic acid] | below 4
2 | CC(CCCO)S(=O)(=O)O (stereo not shown) [1-Methyl-4-hydroxy-1-butane sulfonic acid] | below 4
3 | CCC(CCCO)S(=O)(=O)O (stereo not shown) [1-Ethyl-4-hydroxy-1-butane sulfonic acid] | below 4
4 | CCCC(CCO)S(=O)(=O)O (stereo not shown) [1-Propyl-gamma-hydroxy propane sulfonic acid] | below 4
5 | CCC(CCO)S(=O)(=O)O (stereo not shown) [1-Ethyl-gamma-hydroxy propane sulfonic acid] | below 4
6 | CCCCC(CCO)S(=O)(=O)O (stereo not shown) [1-Butyl-gamma-hydroxy propane sulfonic acid] | below 4
7 | CCCCCCCCC(CCCO)S(=O)(=O)O (stereo not shown) [1-Octyl-4-hydroxy-1-butane sulfonic acid] | below 4

Now from value to molecule:

Row | pKa | SMILES
8 | below 4 | O=S(=O)(O)CCCCCO [5-hydroxy-1-pentane sulfonic acid]
9 | −1,7 | O=S(=O)(O)CCCCO [4-hydroxy-1-butane sulfonic acid]

Same assay, conditions: listed as compound of formula (b)

Row | pKa | SMILES
10 | −1.49 | O=S(=O)(O)CCCO [gamma-hydroxy propane sulfonic acid]
